In patent US20060134738A1, “Gene expression inducing fusion protein and method for controlling gene expression Induction” (priority 2003, published 2006):

What was measured:
Type in all cases: cell-based
[1] = system: proteins containing CVLS, CVLL or SVLS boxes in HeLa cells; test: Subcellular localization of fusion proteins by fluorescence microscopy (FIGS. 6A and B); settings: treatment 8 hours, immunofluorescence with anti-HA antibody
Description: Moreover, the subcellular localization of proteins containing CVLS, CVLL or SVLS boxes was verified.
To do this, these boxes were fused with the YFP protein (yellow fluorescent protein), and all the fusion proteins were cloned with an HA sequence in the N-terminal position. The constructs were transiently transfected into HeLa cells, and the localization of the fusion proteins was followed by fluorescence microscopy after immunofluorescence with an anti-HA antibody (FIGS. 6A and B, in color).

[2] = system: R17-4G-CAAX constructs (CVLS, CVLL, SVLS) in HeLa cells; test: Translation activation in HeLa clones with integrated reporter, transiently transfected with R17-4G-CAAX constructs (FIG. 5); settings: for activation of translation relative to the DMSO controls, R17-4G-SVLS: construct neither farnesylated nor geranylated; for activation of translation relative to the DMSO controls, R17-4G-CVLS: construct with farnesylations box; for activation of translation relative to the DMSO controls, R17-4G-CVLL: construct with geranylations box
Protocol: The pCRL138 or pCRL138-R17 reporter sequences are integrated into the genome of HeLa cells, and various R17-4G-CAAX constructs—where CAAX can be farnesylated, “CVLS”, or geranylgeranylated, “CVLL”, or no longer undergo any post-translational modifications of this type, “SVLS”,—are transiently transfected into these two clones.
After transfection, the cells are treated with FTI 277 (farnesyltransferase inhibitor) or GGTI 298 (geranyltransferase inhibitor).

[3] = system: farnesylation of R17-4G-CVLS; test: LucF/LucR induction in HeLa clone with integrated R17-4G-CVLS, prenyltransferase inhibitors (FIG. 2A, 2B); settings: for induction (quotient of LucF and LucR relative to the DMSO control): reporters pCRL138 and pCRL138-R17, FIG. 2A
Protocol: The nucleic acid encoding the R17-4G-CVLS protein is integrated into the genome of HeLa cells. The reporter plasmids pCRL138 and pCRL138-R17 are transiently transfected into this clone. The products that act on farnesylation of R17-4G-CVLS are then sought.
DMSO is the solvent in which the products (FTI 277 and GGTI 298) that are added to the culture medium are dissolved, and therefore represents an induction control.
The white rectangles represent the RNA which carries the R17 protein recognition sequence. The black rectangles represent the activities obtained under the same conditions with an RNA sequence that is similar but no longer carries the R17 recognition; it is therefore the negative control for the first construct.
The induction is represented by the quotient of the LucF and LucR values measured directly in the presence of an agent (FTI 277 or GGTI 298), relative to the DMSO control.

HMGCoA-reductase = test: LucF/LucR ratio in HeLa cells stably transfected with R17-4G-CVLS, screening of HMGCoA-reductase inhibitors (FIG. 3); settings: for HMGCoA-reductase inhibiting activity (LucF/LucR ratio relative to a DMSO control): HeLa stably R17-4G-CVLS, reporters pCRL138 and pCRL138-R17, FIG. 3; for effect of mevalonate on the inhibitory activity (LucF/LucR ratio): in the presence of mevalonate, FIG. 3
Description: HMGCoA-reductase, which synthesizes melavonate, is involved in isoprenylation, a post-translational modification of proteins such as 4G-CVLS.
In FIG. 3, the cells used during these tests are HeLa cells stably transfected with the plasmid encoding the R17-4G-CVLS fusion protein, and transiently transfected with the bicistronic reporter plasmids pCRL138 and pCRL138-R17.
The results are given in the form of the ratio of LucF/LucR activity in the presence of various pharmacological agents in the culture medium, relative to a DMSO control.
The model used also made it possible to screen potential HMGCoA-reductase inhibiting agents.

[4] = system: Farnesyl Pyrophosphate Synthase, also called FPP-synthase; test: LucF/LucR ratio in HeLa cells stably transfected with R17-4G-CVLS, FPP-synthase inhibitors (FIG. 4); settings: HeLa stably R17-4G-CVLS
Description: This enzyme is required for the biosynthesis of farnesyl pyrophosphates.
In these tests represented in FIG. 4, the same cellular model as in b), stably transfected with R17-4G-CVLS, is used.

[5] = system: p27Kip1 protein expression in CHO (Chinese hamster ovary) cells; test: p27 expression by Western blotting in cotransfected CHO cells (FIG. 7); settings: 8 hours
Description: The reporter plasmid constructed in the context of this example makes it possible to transcribe, in mammalian cells in culture ex vivo, a bicistronic RNA encoding a truncated H2-Kk protein (mouse MHC class I molecule) as a marker for selection of the transfected cells, and encoding the p27Kip1 protein which is a cell cycle-inhibiting protein. The bicistronic RNA also contains, in the intercistron space, a binding site for the R17 bacteriophage capsid protein. This bicistronic RNA is very diagrammatically represented in FIG. 7.
The effector plasmid used is the one for expressing the R17-4G-CVLS fusion protein.
CHO (Chinese hamster ovary) cells are transiently transfected with cationic liposomes using 10 pmol of reporter plasmids and 5 pmol of activator plasmids per 1 million cells. Twelve hours after transfection, the cells are treated for 8 hours with the farnesyltransferase inhibitor (Cys-Val-3(2-naphthyl)Ala-Met; Sigma C4433) at a final concentration of 1 μM in the culture medium. […]
The expression of the p27 protein (ap27 line) is examined by Western blotting with a monoclonal antibody (Ref. 610241, BD Bioscience Pharmingen). The expression of the R17-4G-CVLS fusion protein (aHA line) is detected by Western blotting using a monoclonal antibody against the HA peptide (Eurogentec) located at the NH2-terminal end of the R17-4G-CVLS protein. […]

[6] = system: translation of the second cistron (LucF/LucR ratio), SKHep-1 human hepatoma cells; test: LucF/LucR translation induction in transiently transfected SKHep-1 cells (FIG. 1); settings: inhibitor 15 μM, 1 to 8 hours
Description: 1. “Reporter” plasmids that make it possible to transcribe, in the cells, a bicistronic RNA encoding the LucR (Renilla luciferase) reporter protein in the first cistron and the LucF (firefly luciferase) reporter protein in the second cistron. The plasmids pCRL30-R17 or pCRL138-R17 also contain, in the intercistron space of the mRNA, a binding site for the capsid protein of the R17 bacteriophage (plasmid).
2. Effector plasmids which will be able to express, in the cells: • a fusion protein consisting of the R17 phage capsid protein fused with the C-terminal region of the eIF4G translation initiation factor, for the plasmid pCI R17-4G, • a fusion protein consisting of the R17 phage capsid protein fused with the C-terminal region of the eIF4G translation initiation factor and a farnesylation protein domain (of protein sequence CVLS), for the plasmid pCI R17-4G-CVLS.
The procedure is carried out in the following way. SKHep-1 human hepatoma cells are transiently transfected with cationic liposomes using 10 pmol of reporter plasmids and 5 pmol of activator plasmids per 1 million cells. […]
After lysis of the cells, the LucR and LucF activities are assayed using the “Dual-Luciferase (TM) reporter system” kit (Promega E1980) on a Berthold LB96B luminescence device. […]

induction (quotient of LucF and LucR relative to the DMSO control) ([3]; HeLa, integrated R17-4G-CVLS)	Molecule	activation of translation relative to the DMSO controls, R17-4G-SVLS [2]	activation of translation relative to the DMSO controls, R17-4G-CVLS [2]	activation of translation relative to the DMSO controls, R17-4G-CVLL [2]	HMGCoA-reductase inhibiting activity (LucF/LucR ratio relative to a DMSO control) (HMGCoA-reductase)	effect of mevalonate on the inhibitory activity (LucF/LucR ratio) (HMGCoA-reductase)	further results
has an inducer effect	COC(=O)[C@H](CCSC)NC(=O)c1ccc(NC[C@@H](N)CS)cc1-c1ccccc1 [FTI 277]	neither of the two molecules is capable of activation	capable of activating translation	only GGTI 298 is capable of activating translation	–	–	relocalization of fusion proteins to the cytoplasm [1]: relocalizes only the YFP-CVLS and R17-4G-CVLS proteins to the cytoplasm; treatment time at which the maximum activation effect is obtained ([3]; HeLa, integrated R17-4G-CVLS, kinetics FIG. 2A): 8 h; reversibility of the activation effect (LucF/LucR activation ratio after removal of the product) ([3]; cells treated for 8 h with 1 μM, then product removed, FIG. 2B): reversible
has no activation effect	COC(=O)[C@H](CC(C)C)NC(=O)c1ccc(NC[C@@H](N)CS)cc1-c1cccc2ccccc12 [GGTI 298]	neither of the two molecules is capable of activation	only FTI 277 is capable of activating translation	capable of activating translation	–	–	–
–	c1ccc(Cc2ccc(OCCN3CCCC3)cc2)cc1 [PBPE]	–	–	–	found to be an inhibitor of HMGCOA-reductase	compensated for by the presence of mevalonate	–
–	CC/C(=C(\c1ccccc1)c1ccc(OCCN(C)C)cc1)c1ccccc1 [tamoxifen]	–	–	–	inhibits this enzyme even at low concentrations	reversed or compensated for by mevalonate	farnesylation / FPP-synthase inhibition (LucF/LucR ratio) [4]: is also an FPP-synthase inhibitor
–	Cys-Val-3(2-naphthyl)Ala-Met [farnesyltransferase inhibitor]	–	–	–	–	–	amount of p27 (Western blotting) ([5]; CHO cotransfected with pR17-4G-CVLS and pK-R17-p27, inhibitor 1 μM): An increase in the amount of p27; amount of fusion protein produced (Western blotting, anti-HA) ([5]; CHO cotransfected, with or without inhibitor 1 μM): identical with or without treatment with the inhibitor; level of translation induced by the expression of the R17-4G fusion protein under inhibitor treatment (LucF/LucR ratio) ([6]; SKHep-1, effector pCI R17-4G): not modulated; increase in translation induced by the R17-4G-CAAX inducer fusion protein under inhibitor treatment (LucF/LucR ratio) ([6]; SKHep-1, effector pCI R17-4G-CVLS): dependent on the time of treatment
